Assay results: patent US7723576B2, “Method of selectively producing male or female sterile plants” (Syngenta Limited, priority 2003, dated 2010)

What was measured:
[1] = tested on: conditionally male sterile tobacco plants; assay: Foliar spray on conditionally male sterile transgenic tobacco (TA29-deacetylase plus plastocyanin-PAT); assay type: in vivo
Experimental: Tobacco plant material is transformed, via Agrobacterium, with vector and transgenic plants are regenerated in a similar manner to that described in the previous example. The plants produced are self-fertile but are conditionally male sterile. Seeds of the T1 generation are planted out into soil. Once plantlets have grown to a sufficient size they are tested by PCR for the presence of transgene. PCR positive plants are transferred to the greenhouse. These plants are fully fertile in the absence of exogenously applied herbicide. A subset of these putatively conditionally sterile T1 plants, or, alternatively plantlets of T0 ‘events’ (direct regenerants from transformation) are treated with phosphinothricin in various amounts and at varying growth stages. Where To plants are treated they are vegetatively cloned so that untreated siblings of the events are set aside for seed production. […] For example, phosphinothricin is applied as a foliar spray, prior to or during the early stages of flower formation, at rates usually between 0.25 and 20 kg/ha.
Pollen from the treated plants is collected and viability is tested. […] Pollen collected from some of the treated plants is tested and found to be malformed and non-viable. […]

[2] = tested on: conditionally female sterile tobacco plants; assay: Foliar spray on conditionally female sterile transgenic tobacco (stig1-deacetylase plus plastocyanin-PAT); assay type: in vivo, Nicotiana tabacum var. Samsun
Experimental: Tobacco leaf discs are transformed with the recombinant binary vectors using methods similar to those described in Horsch et al (1985) Science, 227, 1229-1231. Many variations of the method may be used. The binary vector can be transformed into, for example, Agrobacterium tumefaciens strain LBA 4404 using the freeze thaw method of transformation. Tobacco transformation and whole plant regeneration is performed using Nicotiana tabacum var. Samsun according to protocols described by Draper et al (Plant Genetic Transformation, Blackwell Sci. Pub. 1989). Transformation events are selected on MS-media containing kanamycin or other suitable antibiotic. Alternatively selection is made on phosphinothricin. The presence of integrated transgenes is confirmed by PCR. Plants are regenerated and allowed to reach maturity and selfed on to produce seed. Northern and/or Western analysis is used to confirm tissue-specific expression of the deacetylase. The plants are self-fertile but have the condition of conditional female sterility. Seeds of the T1 generation are planted out. Once plantlets have grown to a sufficient size they are tested by PCR for the presence of transgene. PCR positive plants are transferred to the greenhouse. These plants are fully fertile in the absence of exogenously applied phosphinothricin. A subset of these (putatively) conditionally sterile plants are treated with DL-phosphiothricin or L phosphinothricin in various amounts and at varying growth stages. Such treatments are carried out on the T1 plants confirmed as PCR positive for the deacetylase gene, or, equally, such treatments are carried out directly on plants of the To generation (which are vegetatively cloned so that untreated clones of each event may be set aside for seed production). […] For example, phosphinotricin is applied as a foliar spray, prior to or during the early stages of flower formation, at rates usually between 0.25 and 20 kg/ha. Undamaged appearing plants are selected and pollen from the treated plants is collected and viability is tested. […]

[3] = tested on: wheat plants with PAT gene under plastocyanin promoter region; assay: Application to wheat plants expressing PAT under a plastocyanin promoter region; assay type: in vivo; settings: rates of at least 2 kg/ha
Source text: Firstly, the PAT gene is expressed under operable control of a plastocyanin promoter region so that it is expressed substantially only in the green tissues of the plant. […] Thus a critical feature of the constructs described in the foregoing examples which are used to provide the plants of the current example is that the PAT gene which provides the resistance trait is expressed under operable control of a promoter region which provides for expression in substantially only the green tissues. A characteristic of such a useful promoter region is that it should express PAT in such a way that it protects adequately all the […] floral tissues from foliarly applied DL phosphinothricin whilst, at the same time, providing only a minimal level of PAT expression in the floral tissue itself and especially low in those parts targeted for conditional sterility. With PAT expressed under operable control of the barley plastocyanin promoter region this condition appears to be met since substantially all of the L-phosphinothricin which is sprayed enters via the leaves is intercepted and converted to non-phytotoxic N-acetyl-L-phosphinothricin before it translocated to developing floral tissues. […]

[4] = tested on: transgenic plants comprising a PAT gene under operable control of the plastocyanin promoter region; assay: Foliar spray on control transgenic tobacco with PAT gene under plastocyanin promoter, no deacetylase gene; assay type: in vivo, Nicotiana tabacum var. Samsun; settings: rates in excess of 2 kg/ha; no deacetylase co-expressed

Compound | pollen shed and viability after treatment ([1]; foliar spray prior to or during early flower formation, rates usually between 0.25 and 20 kg/ha) | female fertility of treated male infertile plants ([1]; pollinated with pollen from untreated non-transgenic or conditionally female-sterile tobacco) | seed production after treatment ([2]; foliar spray prior to or during early flower formation, selected lines) | vegetative damage (appearance of treated plants) ([2]; foliar spray prior to or during early flower formation, treatment rates of up to 5 kg/ha) | viable pollen production after treatment ([2]; same treatment conditions as for seed production) | reproductive tolerance to the herbicide [3] | reproductive tolerance to the herbicide [4]
CP(=O)(O)CC[C@H](N)C(=O)O (racemic) [phosphinothricin] | no or relatively little pollen and/or pollen which is not viable | remain female fertile | relatively little or no seed | relatively undamaged | near normal levels of viable pollen | – | –
CP(=O)(O)CCC(N)C(=O)O (stereo not drawn) [DL PPT, DL phosphinothricin] | – | – | – | – | – | substantially reproductively tolerant | substantially complete reproductive tolerance
